The values below are quoted from earlier work in US20070155747A1, “INHIBITORS OF FATTY ACID AMIDE HYDROLASE” (KADMUS PHARMACEUTICALS, INC., priority 2005, published 2007).

This data set deals with FAAH. The following applies: literature (Kathuria et al. 2003; Mor et al. 2004; WO 2004/033422).

`NC(=O)c1cccc(-c2cccc(OC(=O)NC3CCCCC3)c2)c1` [KDS-4103]: the “inhibition of FAAH activity” value was “potent and selective inhibitors of FAAH activity”.
